Experimental data: ChEMBL document CHEMBL1201862, “PubChem BioAssay data set” (2004)
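Where inhibition never reached the appropriate level, the endpoint shown equals the highest concentration tested. Otherwise, values were interpolated linearly from a five-concentration, 48-hour dose response in 96-well plates. GI50 is the concentration that inhibits growth by half.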 Calls of active or inactive are those of the source. No stated cut-off is given here; in the data, active = GI50 up to about 1.1 µM and inactive = higher.

What was measured:
Experiment in all cases: DTP human tumour cell line panel, 48 h
A549 = system: A549
MDA-MB-231 = system: MDA-MB-231
SR = system: SR
SF-295 = system: SF-295
RXF 393 = system: RXF 393
OVCAR-5 = system: OVCAR-5
MDA-MB-435 = system: MDA-MB-435
CAKI-1 = system: CAKI-1
HT-29 = system: HT-29
TK-10 = system: TK-10
SK-MEL-5 = system: SK-MEL-5
ACHN = system: ACHN
EKVX = system: EKVX
DU-145 = system: DU-145
KM12 = system: KM12
A498 = system: A498
OVCAR-3 = system: OVCAR-3
NCI-H522 = system: NCI-H522
SF-268 = system: SF-268
CCRF-CEM = system: CCRF-CEM

Compound	GI50 (A549)	GI50 (MDA-MB-231)	GI50 (SR)	GI50 (SF-295)	GI50 (RXF 393)	GI50 (OVCAR-5)	GI50 (MDA-MB-435)	GI50 (CAKI-1)	GI50 (HT-29)	GI50 (TK-10)	GI50 (SK-MEL-5)	GI50 (ACHN)	GI50 (EKVX)	GI50 (DU-145)	GI50 (KM12)	GI50 (A498)	GI50 (OVCAR-3)	GI50 (NCI-H522)	GI50 (SF-268)	GI50 (CCRF-CEM)
O=C(O)c1ccc([N+](=O)[O-])c(P(=O)(O)O)c1	> 100 µM (inactive)	> 100 µM (inactive)	> 100 µM (inactive)	> 100 µM (inactive)	> 100 µM (inactive)	> 100 µM (inactive)	> 100 µM (inactive)	> 100 µM (inactive)	> 100 µM (inactive)	> 100 µM (inactive)	> 100 µM (inactive)	> 100 µM (inactive)	> 100 µM (inactive)	> 100 µM (inactive)	> 100 µM (inactive)	> 100 µM (inactive)	> 100 µM (inactive)	–	–	–
C/C(=N\N=C(/S)N1CC2CCC(CC2)C1)c1cccc[n+]1[O-]	4.98 µM (inactive)	19.5 µM (inactive)	–	4.43 µM (inactive)	13.7 µM (inactive)	6.11 µM (inactive)	28.5 µM (inactive)	9.14 µM (inactive)	1.84 µM (inactive)	20.4 µM (inactive)	6.21 µM (inactive)	5 µM (inactive)	7.45 µM (inactive)	46.8 µM (inactive)	4.56 µM (inactive)	18.3 µM (inactive)	0.044 µM (active)	11.4 µM (inactive)	11.8 µM (inactive)	0.238 µM (active)
C=CCOCn1cnc2c(N)ncnc21	> 100 µM (inactive)	> 100 µM (inactive)	> 100 µM (inactive)	> 100 µM (inactive)	–	> 100 µM (inactive)	> 100 µM (inactive)	> 100 µM (inactive)	> 100 µM (inactive)	> 100 µM (inactive)	> 100 µM (inactive)	> 100 µM (inactive)	> 100 µM (inactive)	> 100 µM (inactive)	> 100 µM (inactive)	> 100 µM (inactive)	–	–	> 100 µM (inactive)	> 100 µM (inactive)
COc1cc2c(cc1OC)-c1c(oc3cc(OC4OC(CO)C(O)C(O)C4O)c(OC)cc3c1=O)C(O)O2 (stereo not given)	> 100 µM (inactive)	> 100 µM (inactive)	–	> 100 µM (inactive)	> 100 µM (inactive)	> 100 µM (inactive)	> 100 µM (inactive)	> 100 µM (inactive)	> 100 µM (inactive)	> 100 µM (inactive)	> 100 µM (inactive)	> 100 µM (inactive)	> 100 µM (inactive)	> 100 µM (inactive)	> 100 µM (inactive)	> 100 µM (inactive)	> 100 µM (inactive)	> 100 µM (inactive)	> 100 µM (inactive)	> 100 µM (inactive)
O=C1/C(=C/c2cccs2)NC(=S)N1CN1CCCCC1	> 100 µM (inactive)	> 100 µM (inactive)	88.9 µM (inactive)	> 100 µM (inactive)	–	> 100 µM (inactive)	85.1 µM (inactive)	–	39.9 µM (inactive)	> 100 µM (inactive)	35.3 µM (inactive)	42.6 µM (inactive)	55 µM (inactive)	42.5 µM (inactive)	> 100 µM (inactive)	> 100 µM (inactive)	> 100 µM (inactive)	71 µM (inactive)	> 100 µM (inactive)	60.5 µM (inactive)
Cc1ccc(/N=C2\C(=N/c3ccc(C)cc3)N(c3ccc(C)cc3)C(=S)N2C(=O)c2ccccc2)cc1	> 100 µM (inactive)	> 100 µM (inactive)	> 100 µM (inactive)	18.3 µM (inactive)	46.8 µM (inactive)	> 100 µM (inactive)	> 100 µM (inactive)	> 100 µM (inactive)	> 100 µM (inactive)	> 100 µM (inactive)	> 100 µM (inactive)	> 100 µM (inactive)	> 100 µM (inactive)	> 100 µM (inactive)	> 100 µM (inactive)	–	> 100 µM (inactive)	43.8 µM (inactive)	> 100 µM (inactive)	–
C=CCCCCCCCCC(=O)ON(Cc1ccc(O)c(OC)c1)C(=O)C(F)(F)F	> 100 µM (inactive)	> 100 µM (inactive)	22.9 µM (inactive)	> 100 µM (inactive)	> 100 µM (inactive)	> 100 µM (inactive)	> 100 µM (inactive)	–	> 100 µM (inactive)	> 100 µM (inactive)	> 100 µM (inactive)	> 100 µM (inactive)	> 100 µM (inactive)	> 100 µM (inactive)	52.5 µM (inactive)	44.1 µM (inactive)	–	–	> 100 µM (inactive)	10 µM (inactive)
Cc1cc(=O)[nH]c2cc(NC(=O)C(CCCNC(=N)N)NC(=O)OCc3ccccc3)ccc12 (stereo not given)	> 100 µM (inactive)	> 100 µM (inactive)	> 100 µM (inactive)	48.5 µM (inactive)	–	> 100 µM (inactive)	> 100 µM (inactive)	> 100 µM (inactive)	> 100 µM (inactive)	> 100 µM (inactive)	> 100 µM (inactive)	> 100 µM (inactive)	> 100 µM (inactive)	> 100 µM (inactive)	> 100 µM (inactive)	> 100 µM (inactive)	> 100 µM (inactive)	> 100 µM (inactive)	> 100 µM (inactive)	> 100 µM (inactive)
c1ccc(Cc2cc(-c3ccccc3)[nH]n2)cc1	11.1 µM (inactive)	11.5 µM (inactive)	18.4 µM (inactive)	0.568 µM (active)	10.3 µM (inactive)	20.6 µM (inactive)	10.3 µM (inactive)	11.5 µM (inactive)	11.2 µM (inactive)	17.4 µM (inactive)	–	15.8 µM (inactive)	10.6 µM (inactive)	11.5 µM (inactive)	14 µM (inactive)	–	0.0465 µM (active)	16.7 µM (inactive)	22.3 µM (inactive)	10.9 µM (inactive)
Cc1ccc(SCC(CF)OC(C)n2cnc3c(Cl)nc(N)nc32)cc1 (stereo not given)	44.7 µM (inactive)	46.6 µM (inactive)	40 µM (inactive)	67.9 µM (inactive)	–	> 100 µM (inactive)	78.3 µM (inactive)	84.7 µM (inactive)	> 100 µM (inactive)	> 100 µM (inactive)	17.3 µM (inactive)	35.2 µM (inactive)	–	> 100 µM (inactive)	> 100 µM (inactive)	–	85.7 µM (inactive)	18.7 µM (inactive)	96.8 µM (inactive)	81.1 µM (inactive)
COc1ccc(-c2nc3ncccn3c2-c2ccc([S+](C)[O-])cc2)cc1 (stereo not given)	> 100 µM (inactive)	> 100 µM (inactive)	50.7 µM (inactive)	> 100 µM (inactive)	–	> 100 µM (inactive)	15.1 µM (inactive)	14.2 µM (inactive)	> 100 µM (inactive)	–	36.8 µM (inactive)	> 100 µM (inactive)	–	> 100 µM (inactive)	80.9 µM (inactive)	–	> 100 µM (inactive)	–	89.5 µM (inactive)	> 100 µM (inactive)
NC(Cc1c[nH]c2cc([N+](=O)[O-])ccc12)C(=O)O (stereo not given)	> 100 µM (inactive)	> 100 µM (inactive)	> 100 µM (inactive)	> 100 µM (inactive)	> 100 µM (inactive)	> 100 µM (inactive)	> 100 µM (inactive)	> 100 µM (inactive)	> 100 µM (inactive)	> 100 µM (inactive)	> 100 µM (inactive)	> 100 µM (inactive)	> 100 µM (inactive)	> 100 µM (inactive)	> 100 µM (inactive)	> 100 µM (inactive)	> 100 µM (inactive)	> 100 µM (inactive)	> 100 µM (inactive)	–
Cc1ccc(-c2cc(O)c3nc4ccccc4n3c2)cc1	> 100 µM (inactive)	> 100 µM (inactive)	> 100 µM (inactive)	> 100 µM (inactive)	> 100 µM (inactive)	–	5.27 µM (inactive)	> 100 µM (inactive)	> 100 µM (inactive)	> 100 µM (inactive)	–	–	> 100 µM (inactive)	> 100 µM (inactive)	> 100 µM (inactive)	> 100 µM (inactive)	> 100 µM (inactive)	7.38 µM (inactive)	> 100 µM (inactive)	> 100 µM (inactive)
O=C(c1ccc(/N=C/c2ccccc2O)cc1)c1ccc(/N=C/c2ccccc2O)cc1	> 100 µM (inactive)	> 100 µM (inactive)	> 100 µM (inactive)	> 100 µM (inactive)	> 100 µM (inactive)	> 100 µM (inactive)	> 100 µM (inactive)	> 100 µM (inactive)	> 100 µM (inactive)	> 100 µM (inactive)	6.11 µM (inactive)	> 100 µM (inactive)	> 100 µM (inactive)	> 100 µM (inactive)	> 100 µM (inactive)	> 100 µM (inactive)	> 100 µM (inactive)	> 100 µM (inactive)	> 100 µM (inactive)	–
COC(=O)C1=C2SCc3ccc(cc3)CSC3=C(C(=O)OC)SC(=C(S2)S1)S3	> 100 µM (inactive)	> 100 µM (inactive)	–	91.8 µM (inactive)	67.3 µM (inactive)	–	49.4 µM (inactive)	> 100 µM (inactive)	–	> 100 µM (inactive)	> 100 µM (inactive)	> 100 µM (inactive)	–	> 100 µM (inactive)	> 100 µM (inactive)	> 100 µM (inactive)	> 100 µM (inactive)	–	–	–
CN(C)Cc1cc(C(=O)/C=C/c2ccc(Cl)c(Cl)c2)cc(CN(C)C)c1O	2.39 µM (inactive)	2.68 µM (inactive)	–	3.38 µM (inactive)	2.48 µM (inactive)	8.83 µM (inactive)	3.26 µM (inactive)	1.13 µM (inactive)	1.24 µM (inactive)	–	1.6 µM (inactive)	1.67 µM (inactive)	8.36 µM (inactive)	4.84 µM (inactive)	1.82 µM (inactive)	3.17 µM (inactive)	1.59 µM (inactive)	1.56 µM (inactive)	3.05 µM (inactive)	1.89 µM (inactive)
